In brackets after ≈: the same amount, converted by molar mass.
How the values were obtained:
E. faecium OC3312 = experiment: MIC by microdilution broth method (NCCLS), E. faecium OC3312; type: cell-based; settings: Enterococcus faecium, OC3312, microdilution broth, cation adjusted Mueller-Hinton broth, 35° C., 16-20 hours; read-out: MIC (μg/mL) E. faecium OC3312
Experimental: (§1) Minimal inhibitory concentration (MIC) has been an indicator of in vitro antibacterial activity widely used in the art. The in vitro antimicrobial activity of the compounds was determined by the microdilution broth method following the test method from the National Committee for Laboratory Standards (NCCLS). This method is described in the NCCLS Document M7-A4, Vol. 17, No.2, “Methods for Dilution Antimicrobial Susceptibility Test for Bacteria that Grow Aerobically-Fourth Edition”, which is incorporated herein by reference.
(§2) In this method two-fold serial dilutions of drug in cation adjusted Mueller-Hinton broth are added to wells in microdilution trays. The test organisms are prepared by adjusting the turbidity of actively growing broth cultures so that the final concentration of test organism after it is added to the wells is approximately 5×10^4 CFU/well.
(§3) Following inoculation of the microdilution trays, the trays are incubated at 35° C. for 16-20 hours and then read. […] The amount of growth in the wells containing the test compound is compared with the amount of growth in the growth-control wells (no test compound) used in each tray. As set forth in Table 1, compounds of the present invention were tested against a variety of Gram positive and Gram negative pathogenic bacteria resulting in a range of activities, from 1 to ≧128 μg/mL depending on the organism tested.

MRSA OC 2878 = experiment: MIC by microdilution broth method (NCCLS), MRSA OC 2878; type: cell-based, Staphylococcus aureus; settings: Staphylococcus aureus, MRSA, cation adjusted Mueller-Hinton broth, 35° C., 16-20 hours, read-out: MIC (μg/mL) MRSA OC 2878
Experimental: as §1, §2, §3

S. aureus = experiment: MIC by microdilution broth method (NCCLS), S. aureus Broth; type: cell-based; settings: Staphylococcus aureus, cation adjusted Mueller-Hinton broth, 35° C., 16-20 hours, read-out: MIC (μg/mL) S. aureus Broth
Experimental: as §1, §2, §3

Structure (SMILES) | MIC (E. faecium OC3312) [µg/mL] | MIC (MRSA OC 2878) [µg/mL] | MIC (S. aureus) [µg/mL] | melting point [°C]
CC(=O)NC[C@H]1CN(c2ccc(OC3CCCN(c4ncccn4)C3)c(F)c2)C(=O)O1 (stereo partly drawn) [Compound 38, (S)-N-[[3-[3-Fluoro-4-{N-(2-pyrimidinyl)piperidinyl-3-oxy}phenyl]-2-oxo-5-oxazolidinyl]methyl]acetamide] | 32 (≈ 74.5 µM) | 8 (≈ 18.6 µM) | 16 (≈ 37.3 µM) | 130 to 131
CC(=O)NC[C@H]1CN(c2ccc(OC3CCN(S(=O)(=O)N(C)C)CC3)c(F)c2)C(=O)O1 [Compound 23, (S)-N-[[3-[3-Fluoro-4-{N-(dimethylsulfamoyl)piperidinyl-4-oxy}phenyl]-2-oxo-5-oxazolidinyl]methyl]acetamide] | 16 (≈ 34.9 µM) | 4 (≈ 8.72 µM) | 16 (≈ 34.9 µM) | 132 to 134
CC(=O)NC[C@H]1CN(c2ccc(OC3CCNCC3)c(F)c2)C(=O)O1 [Compound 2, (S)-N-[[3-[3-Fluoro-4-{piperidinyl-4-oxy}phenyl]-2-oxo-5-oxazolidinyl]methyl]acetamide] | 8 (≈ 22.8 µM) | 32 (≈ 91.1 µM) | 8 (≈ 22.8 µM) | 55 to 59
CC(=O)NC[C@H]1CN(c2ccc(OC3CCN(C(=O)N4CCOCC4)CC3)c(F)c2)C(=O)O1 [Compound 25, (S)-N-[[3-[3-Fluoro-4-{N-(4-morpholinocarbamoyl)piperidinyl-4-oxy}phenyl]-2-oxo-5-oxazolidinyl]methyl]acetamide] | 64 (≈ 138 µM) | 32 (≈ 68.9 µM) | 32 (≈ 68.9 µM) | 167 to 170
CC(=O)NC[C@H]1CN(c2ccc(OC3CCN(C(=O)c4ccccc4)CC3)nc2)C(=O)O1 [Compound 46, (5S)-3-[6-{N-(Benzoyl)piperidinyl-4-oxy}-pyridin-3-yl]-5-methylacetamide-oxazolidin-2-one] | > 128 | 64 (≈ 146 µM) | 64 (≈ 146 µM) | 180 to 182
CC(=O)NC[C@H]1CN(c2ccc(OC3CCN(C(=O)c4cccc(C(F)(F)F)c4)CC3)c(F)c2)C(=O)O1 [Compound 10, (S)-N-[[3-[3-Fluoro-4-{N-(3-trifluoromethylbenzoyl)piperidinyl-4-oxy}phenyl]-2-oxo-5-oxazolidinyl]methyl]acetamide] | 32 (≈ 61.1 µM) | 16 (≈ 30.6 µM) | 16 (≈ 30.6 µM) | 150 to 152
CC(=O)NC[C@H]1CN(c2ccc(OC3CN(C(=O)COC(C)=O)C3)c(F)c2)C(=O)O1 [Compound 59, (S)-N-[[3-[3-Fluoro-4-{N-(acetoxyacetyl)azetidinyl-3-oxy}phenyl]-2-oxo-5-oxazolidinyl]methyl]acetamide] | 16 (≈ 37.8 µM) | 8 (≈ 18.9 µM) | 4 (≈ 9.45 µM) | 172 to 175
CC(=O)NC[C@H]1CN(c2ccc(OC3CCN(C(=O)c4ccc(C#N)cc4)CC3)c(F)c2)C(=O)O1 [Compound 11, (S)-N-[[3-[3-Fluoro-4-{N-(4-cyanobenzoyl)piperidinyl-4-oxy}phenyl]-2-oxo-5-oxazolidinyl]methyl]acetamide] | 16 (≈ 33.3 µM) | 8 (≈ 16.6 µM) | 16 (≈ 33.3 µM) | 75 to 78
CC(=O)NC[C@H]1CN(c2ccc(OC3CCN(C(=O)CN)CC3)c(F)c2)C(=O)O1 [Compound 16] | 32 (≈ 78.3 µM) | 32 (≈ 78.3 µM) | 32 (≈ 78.3 µM) | 142 to 146
CC(=O)NC[C@H]1CN(c2ccc(OC3CCN(C(=O)c4ccco4)CC3)c(F)c2)C(=O)O1 [Compound 51, (S)-N-[[3-[3-Fluoro-4-{N-(2-furoyl)piperdinyl-4-oxy}phenyl]-2-oxo-5-oxazolidinyl]methyl]acetamide] | 8 (≈ 18 µM) | 8 (≈ 18 µM) | 16 (≈ 35.9 µM) | 134 to 136
CC(=O)NC[C@H]1CN(c2ccc(OC3CN(C(=O)COCc4ccccc4)C3)c(F)c2)C(=O)O1 [Compound 58, (S)-N-[[3-[3-Fluoro-4-{N-(benzyloxyacetyl)azetidinyl-3-oxy}phenyl]-2-oxo-5-oxazolidinyl]methyl]acetamide] | 4 (≈ 8.48 µM) | 4 (≈ 8.48 µM) | 8 (≈ 17 µM) | 119 to 121
CC(=O)NC[C@H]1CN(c2ccc(OC3CCCN(C(=O)OC(C)(C)C)C3)c(F)c2)C(=O)O1 (stereo partly drawn) [Compound 34, (S)-N-[[3-[3-Fluoro-4-{N-(t-butoxycarbonyl)piperidinyl-3-oxy}phenyl]-2-oxo-5-oxazolidinyl]methyl]acetamide] | > 128 | 64 (≈ 142 µM) | 128 (≈ 284 µM) | 60 to 63
CC(=O)NC[C@H]1CN(c2ccc(OC3CCN(c4ccc(C#N)cn4)CC3)c(F)c2)C(=O)O1 [Compound 14, (S)-N-[[3-[3-Fluoro-4-{N-(5-cyano-2-pyridyl)piperidinyl-4-oxy}phenyl]-2-oxo-5-oxazolidinyl]methyl]acetamide] | 8 (≈ 17.6 µM) | 4 (≈ 8.82 µM) | 4 (≈ 8.82 µM) | 78 to 84
CC(=O)NC[C@H]1CN(c2ccc(OC3CCN(C(=O)c4ccccn4)CC3)c(F)c2)C(=O)O1 [Compound 20, (S)-N-[[3-[3-Fluoro-4-{N-(2-pyridoyl)piperidinyl-4-oxy}phenyl]-2-oxo-5-oxazolidinyl]methyl]acetamide] | 16 (≈ 35.1 µM) | 8 (≈ 17.5 µM) | 8 (≈ 17.5 µM) | 55 to 58
CC(=O)NC[C@H]1CN(c2ccc(OC3CCN(C(=O)CO)C3)c(F)c2)C(=O)O1 (stereo partly drawn) [Compound 40, (S)-N-[[3-[3-Fluoro-4-{N-(α-hydroxyacetyl)pyrrolidinyl-3-oxy}phenyl]-2-oxo-5-oxazolidinyl]methyl]acetamide] | 16 (≈ 40.5 µM) | 8 (≈ 20.2 µM) | 4 (≈ 10.1 µM) | 97 to 99
CC(=O)NC[C@H]1CN(c2ccc(OC3CCN(C(=O)COCc4ccccc4)C3)c(F)c2)C(=O)O1 (stereo partly drawn) [Compound 39, (S)-N-[[3-[3-Fluoro-4-{N-(benzyloxyacetyl)pyrrolidinyl-3-oxy}phenyl]-2-oxo-5-oxazolidinyl]methyl]acetamide] | 16 (≈ 33 µM) | 16 (≈ 33 µM) | 16 (≈ 33 µM) | 53 to 55
CC(=O)NCC(=O)N1CCC(Oc2ccc(N3C[C@H](CNC(C)=O)OC3=O)cc2F)CC1 [Compound 18, (S)-N-[[3-[3-Fluoro-4-{N-(α-N-acetylaminoacetyl)piperidinyl-4-oxy}phenyl]-2-oxo-5-oxazolidinyl]methyl]acetamide] | 64 (≈ 142 µM) | 16 (≈ 35.5 µM) | 8 (≈ 17.8 µM) | 66 to 68
CC(=O)NC[C@H]1CN(c2ccc(OC3CCN(C(=O)COC(C)=O)CC3)c(F)c2)C(=O)O1 [Compound 53, (S)-N-[[3-[3-Fluoro-4-{N-(acetoxyacetyl)piperidinyl-4-oxy}phenyl]-2-oxo-5-oxazolidinyl]methyl]acetamide] | 16 (≈ 35.4 µM) | 8 (≈ 17.7 µM) | 8 (≈ 17.7 µM) | 146 to 147.5
CC(=O)NC[C@H]1CN(c2ccc(OC3CN(C(=O)CO)C3)c(F)c2)C(=O)O1 [Compound 61, (S)-N-[[3-[3-Fluoro-4-{N-(α-hydroxyacetyl)azetidinyl-3-oxy}phenyl]-2-oxo-5-oxazolidinyl]methyl]acetamide] | 128 (≈ 336 µM) | 64 (≈ 168 µM) | 32 (≈ 83.9 µM) | 158 to 160
